pEC50: −log10 of the molar value.
Molecular target: human GPR40 receptor (Homo sapiens, UniProt O14842)
Experiment: Assay II: IP1 accumulation (IPOne HTRF) in 1321N1 cells stably expressing human GPR40
Format: cell-based
Settings: 1321N1 cells expressing human GPR40, stimulation 1 h at 37° C., 5% CO2, LiCl 50 mM
Experimental: IP1 accumulation measurements using the IPOne assay system—1321N1 cells stably expressing human GPR40 receptor (Euroscreen, Belgium) are seeded 24 h before the assay in white 384-well plates in culture medium containing 10% FCS, 1% Na-Pyruvate and 400 μg/mL G418. IP1 is assayed according to the manufacturers description (Cisbio Bioassays, France). In brief, the assay is started by substitution of the culture medium by stimulation buffer (Hepes 10 mM, CaCl2 1 mM, MgCl2 0.5 mM, KCl 4.2 mM, NaCl 146 mM, glucose 5.5 mM and LiCl 50 mM, pH 7.4). Cells are stimulated for 1 h at 37° C., 5% CO2 by addition of the compounds that are diluted in stimulation buffer containing LiCl. Assays are stopped by adding HTRF-conjugates (IP1-d2 and Anti-IP1 cryptate Tb) and lysis buffer, provided by the manufacturer. After an incubation time of 1 h at room temperature plates are measured using an EnVision™, Perkin Elmer. The obtained fluorescence ratios at 665/615 nM are then used to calculate the pEC50 values using Assay Explorer 3.3 Software (Accelrys, Inc.) by interpolation using an IP1 reference curve and subsequent sigmoidal curve fitting allowing for a variable hill slope.

Sequence of human GPR40 receptor (O14842 whole entry): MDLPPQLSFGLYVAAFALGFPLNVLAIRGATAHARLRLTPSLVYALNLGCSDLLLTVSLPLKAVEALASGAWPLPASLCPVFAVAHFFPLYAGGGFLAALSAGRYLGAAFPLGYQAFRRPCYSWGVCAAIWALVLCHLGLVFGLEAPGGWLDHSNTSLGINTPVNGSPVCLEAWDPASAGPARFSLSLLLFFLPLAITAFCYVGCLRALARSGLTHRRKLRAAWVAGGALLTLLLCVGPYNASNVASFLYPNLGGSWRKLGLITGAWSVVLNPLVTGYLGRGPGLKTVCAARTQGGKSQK

Row | Compound | pEC50
1 | COCc1cc(OCC2(C)COC2)cc(COC)c1-c1ccc(F)c2c1CC[C@H]2Oc1ccc2c(c1)OC[C@H]2CC(=O)O [Example 82, 2-((S)-6-((R)-4-(2,6-Bis(methoxymethyl)-4-((3-methyloxetan-3-yl)methoxy)phenyl)-7-fluoro-2,3-dihydro-1H-inden-1-yloxy)-2,3-dihydrobenzofuran-3-yl)acetic acid] | 7.85
2 | Cc1cc(OCC2(O)CCOCC2)cc(C)c1-c1ccc(F)c2c1CC[C@H]2Oc1ccc2c(c1)OC[C@H]2CC(=O)O [Example 66, 2-((S)-6-((R)-7-Fluoro-4-(4-((4-hydroxytetrahydro-2H-pyran-4-yl)methoxy)-2,6-dimethylphenyl)-2,3-dihydro-1H-inden-1-yloxy)-2,3-dihydrobenzofuran-3-yl)acetic acid] | 8.30
3 | Cc1cc(OC2CCC(C)(O)C2)cc(C)c1-c1ccc(F)c2c1CC[C@H]2Oc1ccc2c(c1)OC[C@H]2CC(=O)O (single isomer, unassigned) [Example 78] | 8.40
4 | CCc1ccc(-c2cc(C)c(-c3ccc(F)c4c3CC[C@H]4Oc3ccc4c(c3)OC[C@H]4CC(=O)O)c(C)c2)nn1 [Example 125, {(S)-6-[(R)-4-(2,6-Dimethyl-4-(6-ethyl-pyridazin-3-yl)-phenyl)-7-fluoro-indan-1-yloxy]-2,3-dihydro-benzofuran-3-yl}-acetic acid] | 8.40
5 | Cc1ccc(-c2cc(C)c(-c3ccc(F)c4c3CC[C@H]4Oc3ccc4c(c3)OC[C@H]4CC(=O)O)c(C)c2)cn1 [Example 117, {(S)-6-[(R)-4-(2,6-Dimethyl-4-(6-methyl-pyridin-3-yl)-phenyl)-7-fluoro-indan-1-yloxy]-2,3-dihydro-benzofuran-3-yl}-acetic acid] | 8.70
6 | Cc1ccc(-c2cc(C)c(-c3ccc(F)c4c3CC[C@H]4Oc3ccc4c(c3)OC[C@H]4CC(=O)O)c(C)c2)nn1 [Example 120, {(S)-6-[(R)-4-(2,6-Dimethyl-4-(6-methyl-pyridazin-3-yl)-phenyl)-7-fluoro-indan-1-yloxy]-2,3-dihydro-benzofuran-3-yl}-acetic acid] | 8.70
7 | Cc1cc(-c2nnn(CC(C)(C)O)n2)cc(C)c1-c1ccc(F)c2c1CC[C@H]2Oc1ccc2c(c1)OC[C@H]2CC(=O)O [Example 98, 2-((S)-6-((R)-7-Fluoro-4-(4-(2-(2-hydroxy-2-methylpropyl)-2H-tetrazol-5-yl)-2,6-dimethylphenyl)-2,3-dihydro-1H-inden-1-yloxy)-2,3-dihydrobenzofuran-3-yl)acetic acid] | 8.52
8 | CC(=O)NCCOc1cc(C)c(-c2ccc(F)c3c2CC[C@H]3Oc2ccc3c(c2)OC[C@H]3CC(=O)O)c(C)c1 [Example 73, 2-((S)-6-((R)-4-(4-(2-Acetamidoethoxy)-2,6-dimethylphenyl)-7-fluoro-2,3-dihydro-1H-inden-1-yloxy)-2,3-dihydrobenzofuran-3-yl)acetic acid] | 7.89
9 | Cc1cc(CCNS(C)(=O)=O)cc(C)c1-c1ccc(F)c2c1CC[C@H]2Oc1ccc2c(c1)OC[C@H]2CC(=O)O [Example 74, 2-((S)-6-((R)-4-(2,6-dimethyl-4-(2-(methylsulfonamido)ethyl)phenyl)-7-fluoro-2,3-dihydro-1H-inden-1-yloxy)-2,3-dihydrobenzofuran-3-yl)acetic acid] | 7.40
10 | Cc1cc(OCc2cnn(C)c2)cc(C)c1-c1ccc(F)c2c1CC[C@H]2Oc1ccc2c(c1)OC[C@H]2CC(=O)O [Example 152, 2-((S)-6-((R)-4-(2,6-dimethyl-4-((1-methyl-1H-pyrazol-4-yl)methoxy)phenyl)-7-fluoro-2,3-dihydro-1H-inden-1-yloxy)-2,3-dihydrobenzofuran-3-yl)acetic acid] | 7.72
11 | Cc1cc(OCCN2CCCS2(=O)=O)cc(C)c1-c1ccc(F)c2c1CC[C@H]2Oc1ccc2c(c1)OC[C@H]2CC(=O)O [Example 40] | 7.89
12 | COc1ccc(-c2cc(C)c(-c3ccc(F)c4c3CC[C@H]4Oc3ccc4c(c3)OC[C@H]4CC(=O)O)c(C)c2)nc1 [Example 135, {(S)-6-[(R)-4-(2,6-Dimethyl-4-(5-methoxy-pyridin-2-yl)-phenyl)-7-fluoro-indan-1-yloxy]-2,3-dihydro-benzofuran-3-yl}-acetic acid] | 8.15
13 | Cc1cc(OC[C@@H]2CCS(=O)(=O)C2)cc(C)c1-c1ccc(F)c2c1CC[C@H]2Oc1ccc2c(c1)OC[C@H]2CC(=O)O (single isomer, unassigned) [Example 46] | 8.15
14 | Cc1cc(-c2nnn(C)n2)cc(C)c1-c1ccc(F)c2c1CC[C@H]2Oc1ccc2c(c1)OC[C@H]2CC(=O)O [Example 95, 2-((S)-6-((R)-4-(2,6-Dimethyl-4-(2-methyl-2H-tetrazol-5-yl)phenyl)-7-fluoro-2,3-dihydro-1H-inden-1-yloxy)-2,3-dihydrobenzofuran-3-yl)acetic acid] | 8.52
15 | COc1cnnc(-c2cc(C)c(-c3ccc(F)c4c3CC[C@H]4Oc3ccc4c(c3)OC[C@H]4CC(=O)O)c(C)c2)c1 [Example 129, {(S)-6-[(R)-4-(2,6-Dimethyl-4-(5-methoxy-pyridazin-3-yl)-phenyl)-7-fluoro-indan-1-yloxy]-2,3-dihydro-benzofuran-3-yl}-acetic acid] | 8.40
16 | Cc1cccc(-c2cc(C)c(-c3ccc(F)c4c3CC[C@H]4Oc3ccc4c(c3)OC[C@H]4CC(=O)O)c(C)c2)n1 [Example 139, {(S)-6-[(R)-4-(2,6-Dimethyl-4-(6-methyl-pyridin-2-yl)-phenyl)-7-fluoro-indan-1-yloxy]-2,3-dihydro-benzofuran-3-yl}-acetic acid] | 8.70
17 | Cc1cc(OCC2(O)CCSCC2)cc(C)c1-c1ccc(F)c2c1CC[C@H]2Oc1ccc2c(c1)OC[C@H]2CC(=O)O [Example 68, 2-((S)-6-((R)-7-Fluoro-4-(4-((4-hydroxytetrahydro-2H-thiopyran-4-yl)methoxy)-2,6-dimethylphenyl)-2,3-dihydro-1H-inden-1-yloxy)-2,3-dihydrobenzofuran-3-yl)acetic acid] | 8.00
18 | Cc1cc(CCCS(C)(=O)=O)cc(C)c1-c1ccc(F)c2c1CC[C@H]2Oc1ccc2c(c1)OC[C@H]2CC(=O)O [Example 70, 2-((S)-6-((R)-4-(2,6-Dimethyl-4-(3-(methylsulfonyl)propyl)phenyl)-7-fluoro-2,3-dihydro-1H-inden-1-yloxy)-2,3-dihydrobenzofuran-3-yl)acetic acid] | 7.22
19 | Cc1cc(-c2cnn(C)c(=O)c2)cc(C)c1-c1ccc(F)c2c1CC[C@H]2Oc1ccc2c(c1)OC[C@H]2CC(=O)O [Example 92, 2-((S)-6-((R)-4-(2,6-Dimethyl-4-(1-methyl-6-oxo-1,6-dihydropyridazin-4-yl)phenyl)-7-fluoro-2,3-dihydro-1H-inden-1-yloxy)-2,3-dihydrobenzofuran-3-yl)acetic acid] | 8.30
20 | Cc1cc(-c2nnn[nH]2)cc(C)c1-c1ccc(F)c2c1CC[C@H]2Oc1ccc2c(c1)OC[C@H]2CC(=O)O [Example 94, 2-((S)-6-((R)-4-(2,6-Dimethyl-4-(1H-tetrazol-5-yl)phenyl)-7-fluoro-2,3-dihydro-1H-inden-1-yloxy)-2,3-dihydrobenzofuran-3-yl)acetic acid] | 7.09
21 | Cc1ccnc(-c2cc(C)c(-c3ccc(F)c4c3CC[C@H]4Oc3ccc4c(c3)OC[C@H]4CC(=O)O)c(C)c2)n1 [Example 119, {(S)-6-[(R)-4-(2,6-Dimethyl-4-(4-methyl-pyrimidin-2-yl)-phenyl)-7-fluoro-indan-1-yloxy]-2,3-dihydro-benzofuran-3-yl}-acetic acid] | 9.00
22 | Cc1cc(C2=CC(=O)OCC2)cc(C)c1-c1ccc(F)c2c1CC[C@H]2Oc1ccc2c(c1)OC[C@H]2CC(=O)O [Example 81, 2-((S)-6-((R)-4-(2,6-Dimethyl-4-(6-oxo-3,6-dihydro-2H-pyran-4-yl)phenyl)-7-fluoro-2,3-dihydro-1H-inden-1-yloxy)-2,3-dihydrobenzofuran-3-yl)acetic acid] | 8.10
23 | Cc1cc(-c2ccc(=O)n(C)c2)cc(C)c1-c1ccc(F)c2c1CC[C@H]2Oc1ccc2c(c1)OC[C@H]2CC(=O)O [Example 85, 2-((S)-6-((R)-4-(2,6-Dimethyl-4-(1-methyl-6-oxo-1,6-dihydropyridin-3-yl)phenyl)-7-fluoro-2,3-dihydro-1H-inden-1-yloxy)-2,3-dihydrobenzofuran-3-yl)acetic acid] | 8.15
24 | O=C(O)C[C@@H]1COc2cc(O[C@@H]3CCc4c(-c5cccnc5C5CCOCC5)ccc(F)c43)ccc21 [Example 110, {(S)-6-[(R)-7-Fluoro-4-(2-tetrahydropyran-4-yl-pyridin-3-yl)-indan-1-yloxy]-2,3-dihydro-benzofuran-3-yl}-acetic acid] | 6.45
25 | ((S)-6-{(R)-4-[4-((R)-1,1-Dioxo- tetrahydro-1-thiophen-3- ylmethoxy)-2,6-dimethyl- phenyl]-7-fluoro-indan-1- yloxy}-2,3-dihydro-benzofuran- 3-yl)-acetic acid [Example 47] | 8.10
26 | Cc1cc(OC2CCN(S(C)(=O)=O)CC2)cc(C)c1-c1ccc(F)c2c1CC[C@H]2Oc1ccc2c(c1)OC[C@H]2CC(=O)O [Example 48, ((S)-6-{(R)-7-Fluoro-4-[4-(1-methanesulfonyl-piperidin-4-yloxy)-2,6-dimethyl-phenyl]-indan-1-yloxy}-2,3-dihydro-benzofuran-3-yl)-acetic acid] | 7.85

Reference: US8642585B2, “Indanyloxydihydrobenzofuranylacetic acids” (Boehringer Ingelheim International GmbH, priority 2012, dated 2014)
